In BindingDB's records for patent US12404295 (Idorsia Pharmaceuticals, 2025) one finds IC50 data, which are given here for 26 molecules.

Sequence of Galectin-3 (P17931 whole entry): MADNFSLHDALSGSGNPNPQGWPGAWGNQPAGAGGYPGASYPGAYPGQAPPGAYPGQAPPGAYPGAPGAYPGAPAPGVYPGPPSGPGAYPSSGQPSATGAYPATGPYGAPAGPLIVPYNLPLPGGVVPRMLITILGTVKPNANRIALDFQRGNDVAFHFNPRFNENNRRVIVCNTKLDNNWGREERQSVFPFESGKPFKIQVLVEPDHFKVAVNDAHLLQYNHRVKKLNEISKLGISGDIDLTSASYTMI

For this experiment, the target named is Galectin-3 (Homo sapiens, UniProt P17931). The experiment can be described thus: Competitive Binding Assay. As for the experimental part:
The inhibitory activity of compounds is determined in competitive binding assays. This spectrophotometric assay measures the binding of biotinylated human Gal-3 (hGal-3) or human Gal-1 (hGal-1), respectively, to a microplate-adsorbed glycoprotein, asialofetuin (ASF).Briefly, compounds are serially diluted in DMSO (working dilutions). […] Finally, 25 μL/well of ABTS substrate is added.
`Cc1nc(C(S[C@@H]2O[C@H](CO)[C@H](O)[C@H](n3cc(-c4cc(F)c(F)c(F)c4)nn3)[C@H]2O)C(C)(C)O)c(C)s1` (stereo partly specified) [US12404295, Example 2.31.123.] gave an IC50 of 550 nM.

As to `Cc1nc([C@@H](S[C@@H]2O[C@H](CO)[C@H](O)[C@H](n3cc(-c4cc(F)c(F)c(F)c4)nn3)[C@H]2O)C(C)(C)O)c(C)s1` [US12404295, Example 2.31.123R.], the IC50 worked out at 280 nM.

Consider `Cc1nc([C@H](S[C@@H]2O[C@H](CO)[C@H](O)[C@H](n3cc(-c4cc(F)c(F)c(F)c4)nn3)[C@H]2O)C(C)(C)O)c(C)s1` [US12404295, Example 2.31.123S.], for which the IC50 worked out at 4700 nM.

The molecule `OC[C@H]1O[C@@H](SC(c2ncccc2C(F)(F)F)C2(O)CC(F)(F)C2)[C@H](O)[C@@H](n2cc(-c3cc(F)c(F)c(F)c3)nn2)[C@H]1O` (stereo partly specified) [US12404295, Example 2.35.125.] registered an IC50 of 320 nM.

In turn, `OC[C@H]1O[C@@H](S[C@H](c2ncccc2C(F)(F)F)C2(O)CC(F)(F)C2)[C@H](O)[C@@H](n2cc(-c3cc(F)c(F)c(F)c3)nn2)[C@H]1O` [US12404295, Example 2.35.125R.] came in with a 50% inhibitory concentration (IC50) of 100 nM.

With `OC[C@H]1O[C@@H](S[C@@H](c2ncccc2C(F)(F)F)C2(O)CC(F)(F)C2)[C@H](O)[C@@H](n2cc(-c3cc(F)c(F)c(F)c3)nn2)[C@H]1O` [US12404295, Example 2.35.125S.], the half-inhibitory concentration (IC50) amounted to 3000 nM.

The molecule `CC1(C)CC(O)(C(S[C@@H]2O[C@H](CO)[C@H](O)[C@H](n3cc(-c4cc(F)c(F)c(F)c4)nn3)[C@H]2O)c2ccccc2C(F)(F)F)CC(C)(C)O1` (stereo partly specified) [US12404295, Example 2.42.102.] had an IC50 of 380 nM.

In the case of `CC1(C)CC(O)([C@H](S[C@@H]2O[C@H](CO)[C@H](O)[C@H](n3cc(-c4cc(F)c(F)c(F)c4)nn3)[C@H]2O)c2ccccc2C(F)(F)F)CC(C)(C)O1` [US12404295, Example 2.42.102R.], the IC50 was 90 nM.

As to `CC1(C)CC(O)([C@@H](S[C@@H]2O[C@H](CO)[C@H](O)[C@H](n3cc(-c4cc(F)c(F)c(F)c4)nn3)[C@H]2O)c2ccccc2C(F)(F)F)CC(C)(C)O1` [US12404295, Example 2.42.102S.], the IC50 is 7820 nM.

As for `CC1(C)CC(O)(C(S[C@@H]2O[C@H](CO)[C@H](O)[C@H](n3cc(-c4cc(F)c(F)c(F)c4)nn3)[C@H]2O)c2ccccc2C(F)(F)F)CCO1` (stereo partly specified) [US12404295, Example 2.43.102.], the IC50 was 120 nM.

As to `CC1(C)C[C@@](O)([C@H](S[C@@H]2O[C@H](CO)[C@H](O)[C@H](n3cc(-c4cc(F)c(F)c(F)c4)nn3)[C@H]2O)c2ccccc2C(F)(F)F)CCO1` [US12404295, Example 2.43.102RR.], the IC50 came out at 290 nM.

For the molecule `CC1(C)C[C@](O)([C@H](S[C@@H]2O[C@H](CO)[C@H](O)[C@H](n3cc(-c4cc(F)c(F)c(F)c4)nn3)[C@H]2O)c2ccccc2C(F)(F)F)CCO1` [US12404295, Example 2.43.102RS.], the concentration for half-maximal inhibition (IC50) came out at 40 nM.

Molecule `CC1(C)C[C@@](O)([C@@H](S[C@@H]2O[C@H](CO)[C@H](O)[C@H](n3cc(-c4cc(F)c(F)c(F)c4)nn3)[C@H]2O)c2ccccc2C(F)(F)F)CCO1` [US12404295, Example 2.43.102SR.] showed an IC50 of 3900 nM.

On to `CC1(C)C[C@](O)([C@@H](S[C@@H]2O[C@H](CO)[C@H](O)[C@H](n3cc(-c4cc(F)c(F)c(F)c4)nn3)[C@H]2O)c2ccccc2C(F)(F)F)CCO1` [US12404295, Example 2.43.102SS.], for which the IC50 was 3920 nM.

`Cc1ccccc1[C@@H](S[C@@H]1O[C@H](CO)[C@H](O)[C@H](n2cc(-c3cc(F)c(F)c(F)c3)nn2)[C@H]1O)[C@@]1(O)CCOC(C)(C)C1` [US12404295, Example 2.43.112RR.]: the IC50 was found to be 1500 nM.

Take `Cc1ccccc1[C@@H](S[C@@H]1O[C@H](CO)[C@H](O)[C@H](n2cc(-c3cc(F)c(F)c(F)c3)nn2)[C@H]1O)[C@]1(O)CCOC(C)(C)C1` [US12404295, Example 2.43.112RS.]: the IC50 stood at 130 nM.

`Cc1ccccc1[C@H](S[C@@H]1O[C@H](CO)[C@H](O)[C@H](n2cc(-c3cc(F)c(F)c(F)c3)nn2)[C@H]1O)[C@@]1(O)CCOC(C)(C)C1` [US12404295, Example 2.43.112SR.] displayed a 50% inhibitory concentration (IC50) of 4900 nM.

`Cc1ccccc1[C@H](S[C@@H]1O[C@H](CO)[C@H](O)[C@H](n2cc(-c3cc(F)c(F)c(F)c3)nn2)[C@H]1O)[C@]1(O)CCOC(C)(C)C1` [US12404295, Example 2.43.112SS.]: the IC50 worked out at 7300 nM.

For the molecule `CO[C@@H]1[C@@H](n2cc(-c3cc(F)c(F)c(F)c3)nn2)[C@@H](O)[C@@H](CO)O[C@H]1SC(c1ncccc1C)C1(O)CCOC(C)(C)C1` (stereo partly specified) [US12404295, Example 2.43.126.I.], the IC50 worked out at 160 nM.

The molecule `CO[C@@H]1[C@@H](n2cc(-c3cc(F)c(F)c(F)c3)nn2)[C@@H](O)[C@@H](CO)O[C@H]1S[C@H](c1ncccc1C)[C@]1(O)CCOC(C)(C)C1` [US12404295, Example 2.43.126RS.I.] had an IC50 of 40 nM.

On to `OC[C@H]1O[C@@H](S[C@H](c2ccccc2C2CC2)C2(O)CCC(F)(F)CC2)[C@H](O)[C@@H](n2cc(-c3cc(F)c(F)c(F)c3)nn2)[C@H]1O` [US12404295, Example 2.44.106R.*], for which the concentration for half-maximal inhibition (IC50) was 60 nM.

In turn, `OC[C@H]1O[C@@H](S[C@@H](c2ccccc2C2CC2)C2(O)CCC(F)(F)CC2)[C@H](O)[C@@H](n2cc(-c3cc(F)c(F)c(F)c3)nn2)[C@H]1O` [US12404295, Example 2.44.106S.*] yielded a concentration for half-maximal inhibition (IC50) of 930 nM.

In turn, `OC[C@H]1O[C@@H](SC(c2cccc(Cl)c2Cl)C2(O)CCC(F)(F)CC2)[C@H](O)[C@@H](n2cc(-c3cc(F)c(F)c(F)c3)nn2)[C@H]1O` (stereo partly specified) [US12404295, Example 2.44.113.] registered an IC50 of 360 nM.

The molecule `OC[C@H]1O[C@@H](S[C@H](c2cccc(Cl)c2Cl)C2(O)CCC(F)(F)CC2)[C@H](O)[C@@H](n2cc(-c3cc(F)c(F)c(F)c3)nn2)[C@H]1O` [US12404295, Example 2.44.113R.] had an IC50 of 800 nM.

Molecule `OC[C@H]1O[C@@H](S[C@@H](c2cccc(Cl)c2Cl)C2(O)CCC(F)(F)CC2)[C@H](O)[C@@H](n2cc(-c3cc(F)c(F)c(F)c3)nn2)[C@H]1O` [US12404295, Example 2.44.113S.] displayed a concentration for half-maximal inhibition (IC50) of 57500 nM.

Consider `CC(C)Cc1c(C(S[C@@H]2O[C@H](CO)[C@H](O)[C@H](n3cc(-c4cc(F)c(F)c(F)c4)nn3)[C@H]2O)C2(O)CCC(F)(F)CC2)noc1C1CC1` (stereo partly specified) [US12404295, Example 2.44.131.], for which the IC50 worked out at 110 nM.

Usually IC50 stands for the concentration that gives 50% inhibition.
